In publication PMC8058401, “Identification and Characterization of Zika Virus NS5 Methyltransferase Inhibitors” (Frontiers in Cellular and Infection Microbiology, 2021):
Where two headings read alike, the source gives them in different places.

What was measured:
[1] = tested on: ZIKV; conditions: cited from earlier work
[2] = tested on: ZIKV (SMGC-1); assay: cell viability assay based on ZIKV-induced cytopathic effect (CPE) in Huh-7 cells; conditions: Zika virus, Huh-7, read-out: EC50, protection from ZIKV induced CPE
[3] = tested on: ZIKV; assay: virus yield reduction assay by qRT-PCR in Huh-7 cells; conditions: Huh7 cells, 72 hpi; for effect on viral RNA copy numbers: dose dependent
[4] = target: ZIKV NS5 MTase (WT-MTase) (Zika virus, UniProt A0A024B7W1); assay: biochemical
[5] = tested on: WNV; set-up: method as in Dong et al., 2008; Tao et al., 2018; conditions: ref Dong et al., 2008; Tao et al., 2018; read-out: EC50, anti-virus activity for WNV; cited from earlier work
[6] = tested on: DENV; set-up: method as in Dong et al., 2008; Tao et al., 2018; conditions: ref Dong et al., 2008; Tao et al., 2018; read-out: EC50, anti-virus activity for DENV; cited from earlier work
[7] = target: NS5 MTase of DENV; set-up: method as in Dong et al., 2008; conditions: ref Dong et al., 2008; cited from earlier work
[8] = target: NS5 MTase of WNV; set-up: method as in Dong et al., 2008; conditions: ref Dong et al., 2008; cited from earlier work
[9] = tested on: SARS-CoV-2 3CL-protease; set-up: method as in Jang et al., 2020; conditions: dose-dependent; ref Jang et al., 2020; cited from earlier work
[10] = CCK-8 cytotoxicity assay; conditions: human
[11] = target: ZIKV NS5 WT-MTase (Zika virus, UniProt A0A024B7W1); assay: surface plasmon resonance assay, WT-MTase; type: binding
[12] = target: ZIKV NS5 K105A-MTase (Zika virus, UniProt A0A024B7W1, K2625A); assay: luminescence-based methyltransferase assay, K105A-MTase

In the case of `Cc1cc(N)c2cc(NC(=O)Nc3ccc4nc(C)cc(N)c4c3)ccc2n1` [NSC 12155], the “inhibitory activity toward ZIKV” value ([1]; no reference given) is listed as “no inhibitory activity”.

In the case of `CCN(CC)CCCC(C)Nc1ccnc2cc(Cl)ccc12` (stereo not shown) [chloroquine], the EC50 [2] is given as 2.55 µM, the “effect on viral RNA copy numbers” value [3] is given as “significantly reduced viral RNA copy numbers” and the EC50 ([1]; ref Li C. et al., 2017, Han et al., 2019, read-out: EC50, ZIKV infection in vitro) is given as 1 to 5 µM.

For `Nc1ncnc2c1ncn2[C@@H]1O[C@H](C[C@@H](N)CC[C@H](N)C(=O)O)[C@@H](O)[C@H]1O` [sinefungin], the IC50 [4] is given as 4.03 µM, the EC50 [5] is given as 27 µM and the EC50 [6] is given as 77 µM. The IC50 [7] was roughly 630 nM, the EC50 ([1]; ref Dong et al., 2008, Tao et al., 2018, read-out: EC50, anti-virus activity for ZIKV) was greater than 50 µM and the IC50 [8] was roughly 14 µM.

Molecule `O=c1c(O)cc([C@H]2Oc3cc(O)cc(O)c3C[C@H]2O)cc2c([C@H]3Oc4cc(O)cc(O)c4C[C@H]3O)cc(O)c(O)c12` [theaflavin] has an IC50 [4] of 10.1 µM, an inhibition at 20 µM ([4]; at 20 μM, read-out: MTase inhibitory activity in initial screening) greater than 50% and an EC50 [2] of 8.19 µM. For the same molecule, the “inhibitory activity toward SARS-CoV-2 by targeting the 3CL-protease” value [9] was “significant inhibitory activity”, the “reduction of viral RNA detected in the supernatant” value ([3]; 20 μM) was “more than 50%” and the “effect on viral RNA copy numbers” value [3] was “significantly reduced viral RNA copy numbers”. It also gave a CC50 at 24 h [10] greater than 128 µM, a Kd [11] of 64.4 µM and an IC50 [12] of 37.8 µM.
